Laboratory results from paper PMC7914648 (Pharmaceuticals, 2021).

Tests used:
SHSY-5Y cells = experiment: MTS cell viability assay; type: cell-based
Method: SHSY-5Y cells (kindly provided by I. Szabò) were grown in Dulbecco’s Modified Eagle Medium (DMEM, Aurogene) supplemented with 10% (v/v) fetal bovine serum (FBS), 100 U/mL penicillin G, 0.1 mg/mL streptomycin and 5% glutamine.
SHSY-5Y cells were seeded (10,000 cells/well) in standard 96-well plates in DMEM (200 µL). After 24 h, the growth medium was replaced with a medium containing PAPTP and PAPTPL (from a stock solution in DMSO) at the desired final concentrations (20, 10 and 3 μM). DMEM without additions (CONTROL in Figure 2) was used as negative control. The final concentration of DMSO was 0.1% or lower in all cases (including control). After incubation for 24 h, 20 µL of CellTiter 96 AQUEOUS One solution (Promega, Italy) were added to each well and the plate was incubated at 37 °C in a humidified, 5% CO2 atmosphere for 4 h. Absorbance was measured at 490 nm to detect formazan formation.

[1] = Tissue distribution of An2-PAPTP and metabolites (liver, spleen, kidneys, heart) after i.v. injection; type: in vivo, mouse; conditions: mean ± SEM; for metabolite in liver, 15 min: n = 5; for metabolite in heart, 15 min / metabolite in kidneys, 15 min / metabolite in spleen, 15 min: N = 5
From the text: The total amount of An2-PAPTP and its metabolites, summarized in Table 3, is comprehensive of all the species having the characteristic psoralenic UV spectrum obtained by the overall extraction procedure (i.e., from organic solvent extraction and basic hydrolysis of the remaining pellet), and represents and underestimation of the real concentration in the tissue (see Section 4.7.3). This is because no recovery yield correction was applied, since it was impossible to identify most of the species extracted, and because PAPTPL extracted after high-pH hydrolysis of the pellet could come either from An2-PAPTP or from metabolites. For quantification in HPLC analysis, all the psoralenic species were assumed to have the same molar extinction coefficient as PAPTPL, an assumption justified by the near-identity observed for all the available psoralen-containing molecules.
(§1) The liver, spleen, kidneys, heart obtained from untreated mice were weighed and homogenized with PBS pH 7.4 (1 vol) with a potter. The pre-established amount of PAPTPL was added into tissue homogenates or blood and, after thorough vortexing, 5 vol of acetone were added and the sample was sonicated for 2 min. Subsequently, 5 vol of ACN containing 0.1% TFA were added and the sample was sonicated for 5 min. The sample was then centrifuged at 12,000× g for 7 min at 4 °C and the supernatant was collected, concentrated with a Hetovac VR-1, and analyzed via HPLC-UV.
as §1, with “Brain and liver” for “The liver, spleen, kidneys, heart”, “analyte” for “PAPTPL”, “homogenates” for “homogenates or blood”, “trifluoracetic acid (TFA)” for “TFA”
(§2) To quantify the amount of An2-PAPTP stuck in the tissue, the pellet remaining after the procedure described above was incubated with intermittent Vortexing at 60 °C for 3 h with PBS pH 12.5/ACN 1:1 and then centrifuged at 12,000× g for 7 min. HPLC-UV analysis of the supernatant, measuring PAPTPL hydrolyzed from the tissue, thus indirectly reflects the amount of An2-PAPTPL in the pellet (Scheme 3). Quantification was as described for PAPTPL.
(§3) A stock solution of the peptide-PAPTP conjugates was prepared in DMSO. TAT-PAPTP was administered at 8 and 5 μmol/kg bw and An2-PAPTP only at 5 μmol/kg bw. The calculated quantity of drugs was diluted from the stock solution in saline or mouse plasma to a final volume of 200 μL.

[2] = Preliminary brain levels after intraperitoneal An2-PAPTP; type: in vivo, mouse; conditions: An2-PAPTP 5 µmol/kg bw i.p. in DMSO; sacrifice at 20 min or 1, 2, 4 h; four mice
Method: In preliminary tests An2-PAPTP was administered at 5 µmol/kg bw by the intraperitoneal (i.p.) route, using dimethylsulfoxide (DMSO) as the vehicle. […] Many brain-penetrating peptides bind to biomolecules such as proteins and cell structures such as membranes. Furthermore, the absence of a flowing bloodstream at the injection site may cause a poorly soluble molecule to remain confined in the vicinity of the point of delivery. […] Collectively, these preliminary results led to the adoption of the intravenous route. An2-PAPTP (5 µmoles/kg bw, in plasma) was thus administered by tail vein injection to mice.

orthotopic glioma = conditions: orthotopic murine model; cited from earlier work
From the text: (§4) In turn, this difficulty may be due at least in part precisely to the TPP group, since the parent compound, PAP-1, is effective against various Central Nervous System (CNS) disorders. This difficulty is not surprising if one compares the characteristics of ...

[3] = system: cultured glioma and glioblastoma cell lines; conditions: cited from earlier work
From the text: as §4

[4] = Aqueous solubility determination; type: physicochemical; conditions: kinetic, 25 mM DMSO stock diluted to 100 μM (DMSO < 0.4%), supernatant HPLC/UV
Method: For TAT-PAPTP and An2-PAPTP, three distinct suspensions were prepared by diluting 25 mM stock solutions in DMSO to 100 μM, in 0.9% NaCl saline or water (DMSO < 0.4%). The suspensions were sonicated 5 min and immediately analyzed. The suspensions were then centrifuged at 12,000× g, 18 °C, for 1 and 2 h, and the supernatants were analyzed by HPLC/UV at the end of each centrifugation. An additional analysis was performed after 24 h of standing. The chromatographic peak areas were used to determine the concentration of the compound in the supernatants, based on calibration curves built using solutions in DMSO.

[5] = type: in vivo, mouse; conditions: TAT-PAPTP 5 µmoles/kg bw i.v. tail vein in mouse plasma, 2 C57BL mice sacrificed within 15 min; PAPTPL extracted after hydrolysis at pH 12.5, HPLC
Method: The brains of these mice were analyzed to evaluate the presence of the construct in the tissue (see Section 4.7). Each brain was homogenized and incubated with an equal volume of phosphate-buffered saline (PBS, pH 12.5) for 24 h; 10 volumes of ethyl acetate were then added. After vigorous mixing, the organic phase was collected, concentrated and analyzed via HPLC. This procedure allows hydrolysis of the carbamate bond, leading to the extraction of PAPTPL, which is considered proportional to the amount of peptide-PAPTP conjugate (or its fragments) present in the brain.
The protocol set up for PAPTPL recovery turned out to be inefficient for the quantification of TAT-PAPTP. An alternative protocol was thus developed. Tissue obtained from untreated mice was weighed and homogenized with PBS pH 7.4 (1 vol) with a potter. The pre-established amount of analyte was added into tissue homogenates and, after thorough vortexing, 1 vol of PBS pH 12.5 was added and the sample was incubated with intermittent vortexing at 60 °C for 24 h. This step is required to allow the hydrolysis of the carbamate bond connecting the peptide and PAPTPL. 10 vol of ethyl acetate were added and, after vortexing and sonication for 2 min, the sample was centrifuged at 12,000× g, 7 min, Room Temperature. The organic phase was collected and concentrated with Hetovac VR-1. ACN was added to the concentrated sample to allow the resuspension of PAPTPL and analyzed via HPLC. Quantification was as described for PAPTPL.
as §1, with “Brain and liver” for “The liver, spleen, kidneys, heart”, “analyte” for “PAPTPL”, “homogenates” for “homogenates or blood”, “trifluoracetic acid (TFA)” for “TFA”
as §2, §3

mouse Red Blood Cells = experiment: Haemolysis assay; type: cell-based; conditions: 5 × 10^7 mouse erythrocytes in 1 mL PBS pH 7.4, 2, 1 or 0.5 µM, 15 min, absorbance 540 nm, n = 3
Method: Haemolysis studies were conducted as described in [72]. Briefly, freshly withdrawn blood samples were centrifuged at 1000× g for 10 min to obtain erythrocytes; the pellet was then washed thrice with sterile PBS (pH 7.4). Erythrocytes (5 × 10^7 cells in 1 mL of PBS for each experimental condition) were incubated with 2, 1 or 0.5 µM An2-PAPTP or TAT-PAPTP for 15 min. The samples were then centrifuged and absorbance (Abs) of the supernatant was measured at 540 nm. Triton X-100 1% and PBS were used as positive and negative control, respectively.
The percentage of haemolysis was calculated with the following equation:% haemolysis = [(Abssample − AbsPBS)/AbsTriton X-100 − AbsPBS)] × 100

[6] = Stability in blood (hydrolysis, PAPTPL release); type: in vitro ADME; conditions: fresh heparinized C57BL mouse blood, 37 °C, 5 µM from 5 mM DMSO stock, HPLC-UV, % PAPTPL released relative to amount spiked, mean, n = 5 (An2-PAPTP) and 4 (TAT-PAPTP)
Method: C57BL mice were anesthetized and blood was withdrawn from the jugular vein and heparinized. Blood samples (1 mL) were spiked with compound (5 µM; dilution from a 5 mM stock solution in DMSO) and incubated at 37 °C for 4 h (the maximum period allowed by blood stability). Aliquots were taken after 10 min, 30 min, 1 h, 2 h, and 4 h before HPLC-UV analysis.
Each aliquot was treated as described above (Section 4.7.1). Compound stability in blood was expressed as % of PAPTPL released relative to the amount of An2-PAPTP and TAT-PAPTP spiked in the sample at time 0.

C57BL mice = experiment: Observed toxicity after tail vein injection; type: in vivo; conditions: 5 µmoles/kg bw by tail vein injection in mouse plasma, no proper toxicological study
Method: TAT-PAPTP (5 µmoles/kg bw) was administered by tail vein injection to 2 C57BL mice. […] The observed toxicity was not due to the use of plasma, since mice were not made ill by the administration of PAPTP or An2-PAPTP in the same vehicle (see below, Section 2.7).
as §3

[7] = after An2-PAPTP 5 µmoles/kg bw i.v.

O=C([O-])C(F)(F)F.O=c1ccc2c(OCCCCOc3ccc(CCC[P+](c4ccccc4)(c4ccccc4)c4ccc(OCCCc5ccc(O)cc5)cc4)cc3)c3ccoc3cc2o1 [PAPTPL, (4-(3-(4-hydroxyphenyl)propoxy)phenyl)(3-(4-(4-((7-oxo-7H-furo[3,2-g]chromen-4-yl)oxy)butoxy)phenyl)propyl)diphenylphosphonium 2,2,2-trifluoroacetate]
difference in cytotoxic effect versus PAPTP (SHSY-5Y cells; 24 h, MTS, one-way ANOVA): no statistically significant difference
cytotoxic effect (cell viability, MTS reduction assay) (SHSY-5Y cells; 24 h treatment, 20, 10 and 3 μM, absorbance 490 nm, n = 3): marked cytotoxicity
metabolite in liver, 15 min ([1]; after An2-PAPTP 5 µmoles/kg bw i.v. in mouse plasma, HPLC-UV): 1.5 ± 0.6 nmol/g fresh tissue
metabolite in heart, 15 min [1, 7]: 0.12 ± 0.06 nmol/g fresh tissue
metabolite in kidneys, 15 min [1, 7]: 0.7 ± 0.1 nmol/g fresh tissue
metabolite in liver, 15 min [1, 7]: 1.2 ± 0.5 % administered dose
metabolite in spleen, 15 min [1, 7]: 0.9 ± 0.2 nmol/g fresh tissue
metabolite in heart, 15 min ([1]; after An2-PAPTP i.v.): 0.013 ± 0.007 % administered dose
metabolite in kidneys, 15 min ([1]; after An2-PAPTP i.v.): 0.1 ± 0.1 % administered dose
metabolite in spleen, 15 min ([1]; after An2-PAPTP i.v.): 0.05 ± 0.02 % administered dose
detection in brain after i.p. administration [2]: no An2-PAPTP or PAPTPL could be detected

O=C(NCCC[P+](c1ccccc1)(c1ccccc1)c1ccccc1)Oc1ccc(OCCCCOc2c3ccoc3cc3oc(=O)ccc23)cc1.[I-] [PCARBTP, (3-(((4-(4-((7-oxo-7H-furo[3,2-g]chromen-4-yl)oxy)butoxy)phenoxy)carbonyl)amino)propyl)triphenylphosphonium iodide]
effect on tumor growth (orthotopic glioma): did not affect tumor growth
killing of cultured glioma and glioblastoma cell lines [3]: efficiently killed

CC[C@H](C)[C@H](NC(=O)Oc1ccc(CCCOc2ccc([P+](CCCc3ccc(OCCCCOc4c5ccoc5cc5oc(=O)ccc45)cc3)(c3ccccc3)c3ccccc3)cc2)cc1)C(=O)NCC(=O)N[C@@H](CCCNC(=N)N)C(=O)N[C@@H](CCCCN)C(=O)N[C@@H](CCCCN)C(=O)N[C@@H](CCCNC(=N)N)C(=O)N[C@@H](CCCNC(=N)N)C(=O)N[C@@H](CCC(N)=O)C(=O)N[C@@H](CCCNC(=N)N)C(=O)N[C@@H](CCCNC(=N)N)C(=O)N[C@@H](CCCNC(=N)N)C(=O)N1CCC[C@H]1C(=O)N1CCC[C@H]1C(=O)N[C@@H](CCC(N)=O)C(=O)NCC(=O)O [TAT-PAPTP]
solubility in 0.9% NaCl saline ([4]; 0.9% NaCl saline, sonicated 5 min, centrifuged 12,000 × g 18 °C 1 and 2 h, detection limit 0.1 µM): > 100 µM
solubility in water ([4]; water, sonicated, centrifuged 12,000 × g 18 °C): > 100 µM
construct level in brain [5]: 0.2–0.3 nmoles/g fresh tissue
haemolysis (release of haemoglobin) (mouse Red Blood Cells): did
hydrolyzed in mouse blood over 4 h (PAPTPL released) [6]: more stable
observed toxicity in mice (C57BL mice): evident signs of illness (respiratory difficulties, trailing limbs, swelling of the paws)
observed toxicity in mice (C57BL mice; listed as TAT-PAPT): more toxic than its individual components (TAT and PAPTP) as well as than An2-PAPTP
